# How the values were obtained:
# [1] = tested on: P. falciparum 3D7 parasites; assay: Metabolomic profiling of compound-treated parasites (LC/MS); assay type: cell-based; parameters: Metabolite data: dTMP / Metabolite data: GMP / Metabolite data: S-Adenosyl-L-Homocysteine / Metabolite data: 1_3-Bisphosphoglyceric acid: scale not given here;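 as to Metabolite data: 3-Phosphoglycerate: Log2 fold change in abundance versus untreated parasite controls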;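 as to Metabolite data: Myo-Inositol: Log2 fold change in abundance versus untreated parasite controls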;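 as to Metabolite data: N-Carbamoyl-L-Aspartate: Log2 fold change in abundance versus untreated parasite controls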;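 as to Metabolite data: Nicotinate: Log2 fold change in abundance versus untreated parasite controls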
# Procedure, shortened: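 Magnetically purified trophozoites (1×10^8 parasites/mL) recovered 1 h in RPMI 1640, incubated a further 2.5 h, quenched in 90% methanol with labeled aspartate. Extracts analysed by reverse-phase C18 LC with negative-mode Orbitrap MS; peak areas normalized to internal standards, blank-subtracted and averaged by condition.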
# P. falciparum parasites = assay: Isobologram analyses (fractional IC50 of compound combinations); assay type: cell-based; details: combination with TSA
smiles,measurement,setting,value
"O=C1C(O)=C([C@H]2CC[C@H](c3ccc(Cl)cc3)CC2)C(=O)c2ccccc21 [Atovaquone, reference compound]",Metabolite data: 1_3-Bisphosphoglyceric acid,[1],0
same,Metabolite data: 2_3-Diphosphoglyceric acid,[1],-0.24
same,Metabolite data: 3-Phosphoglycerate,[1],0
same,Metabolite data: 4-Aminobutyrate,[1],0.16
same,Metabolite data: 4-Phosphopantothenate,[1],-0.34
same,Metabolite data: 4-phosphopantetheine,[1],0
same,Metabolite data: 5-aminopentanoic acid,[1],0
same,Metabolite data: 5-phosphoribosyl-1-pyrophosphate,[1],0
same,Metabolite data: 6-Phospho-D-Gluconate,[1],0.06
same,Metabolite data: ADP-D-Glucose,[1],0.04
same,Metabolite data: Acetyl-CoA,[1],-0.68
same,Metabolite data: Acetyllysine,[1],-0.01
same,Metabolite data: Aconitate,[1],0.31
same,Metabolite data: CDP,[1],-0.84
same,Metabolite data: CDP-Ethanolamine,[1],-0.15
same,Metabolite data: CDP-choline,[1],0
same,Metabolite data: CMP,[1],-0.8
same,Metabolite data: CTP,[1],-0.85
same,Metabolite data: Citrate/Isocitrate,[1],-0.17
same,Metabolite data: Cyclic-AMP,[1],0.13
same,Metabolite data: Dihydroorotate,[1],4.84
same,Metabolite data: FAD,[1],0.09
same,Metabolite data: FMN,[1],-1.11
same,"Metabolite data: Fructose-1,6-Bisphosphate",[1],0.15
same,Metabolite data: Fumarate,[1],0.18
same,Metabolite data: GDP,[1],-0.12
same,Metabolite data: GMP,[1],0.4
same,Metabolite data: GTP,[1],0.09
same,Metabolite data: Glucose-1/6-Phosphate,[1],-0.03
same,Metabolite data: Glutathione Disulfide,[1],0.11
same,Metabolite data: Hexose,[1],0
same,Metabolite data: Hydroxyisocaproic acid,[1],0
same,Metabolite data: Indole,[1],0.06
same,Metabolite data: Ketoleucine,[1],0
same,Metabolite data: L-arginino-succinate,[1],0
same,Metabolite data: Lactate,[1],0.09
same,Metabolite data: Malate,[1],0.05
same,Metabolite data: Myo-Inositol,[1],-0.06
same,Metabolite data: N-Acetyl-Glutamate,[1],0.13
same,Metabolite data: N-Acetyl-L-Alanine,[1],0.22
same,Metabolite data: N-Acetyl-L-Ornithine,[1],-0.16
same,Metabolite data: N-Carbamoyl-L-Aspartate,[1],4.58
same,Metabolite data: NAD+,[1],0.08
same,Metabolite data: NADH,[1],1.7
same,Metabolite data: NADP+,[1],-0.1
same,Metabolite data: NADPH,[1],0.32
same,Metabolite data: Nicotinate,[1],-0.09
same,Metabolite data: Octulose 8/1-Phosphate,[1],-0.01
same,Metabolite data: Orotate,[1],0.81
same,Metabolite data: PD,[1],0
same,Metabolite data: PE,[1],0
same,Metabolite data: PEEK,[1],0
same,Metabolite data: Phenol Red,[1],0
same,Metabolite data: Pyroglutamic acid,[1],0.06
same,Metabolite data: S-Adenosyl-L-Homocysteine,[1],0.32
same,Metabolite data: S-methyl-5'-thioadenosine,[1],-0.26
same,Metabolite data: SD,[1],0
same,Metabolite data: Sedoheptulose Bisphosphate,[1],0.01
same,Metabolite data: UDP,[1],-1.17
same,Metabolite data: UDP-D-Glucose,[1],-0.06
same,Metabolite data: UDP-D-Glucuronate,[1],-0.13
same,Metabolite data: UDP-N-Acetyl-Glucosamine,[1],-0.25
same,Metabolite data: UMP,[1],-0.68
same,Metabolite data: UTP,[1],-1.12
same,Metabolite data: a-ketoglutarate,[1],-0.04
same,Metabolite data: acetyl-aspartate,[1],0
same,Metabolite data: arginine,[1],0
same,Metabolite data: asparagine,[1],0
same,Metabolite data: aspartate,[1],0
same,Metabolite data: biotin,[1],0
same,Metabolite data: chlorpropamide,[1],0
same,Metabolite data: coenzyme A,[1],0
same,Metabolite data: dAMP,[1],-0.09
same,Metabolite data: dATP,[1],0.28
same,Metabolite data: dCDP,[1],-0.01
same,Metabolite data: dCMP,[1],-0.39
same,Metabolite data: dCTP,[1],-0.38
same,Metabolite data: dGDP/ADP,[1],0
same,Metabolite data: dGMP/AMP,[1],-0.1
same,Metabolite data: dGTP/ATP,[1],0
same,Metabolite data: dTDP,[1],-0.95
same,Metabolite data: dTMP,[1],-0.81
same,Metabolite data: dTTP,[1],-0.98
same,Metabolite data: folate,[1],0
same,Metabolite data: glucono-lactone,[1],0
same,Metabolite data: glutamate,[1],0
same,Metabolite data: glutamine,[1],0
same,Metabolite data: glutathione,[1],0
same,Metabolite data: histidine,[1],0
same,Metabolite data: hydroxyproline/Aminolevulinate,[1],0
same,Metabolite data: isoleucine,[1],0
same,Metabolite data: leucine,[1],0
same,Metabolite data: maleic acid,[1],0
same,Metabolite data: methionine,[1],0
same,Metabolite data: nicotinamide mononucleotide,[1],0
same,Metabolite data: orotidine-5'-phosphate,[1],0
CCN(CC)S(=O)(=O)c1ccc(Cl)c(C(=O)Nc2ccc3nc(C)sc3c2)c1 [MMV019721],interaction in isobologram analyses with the HDAC inhibitor TSA,P. falciparum parasites,strongly antagonistic

# — paper PMC8878317, “Chemogenomics identifies acetyl-coenzyme A synthetase as a target for malaria treatment and prevention” (Cell Chemical Biology, 2022)
